The term Ki denotes a dissociation constant, usually derived from enzyme kinetics or from competition with a known ligand. By IC50 is commonly meant the midpoint of a concentration-inhibition curve.

Drawing on patent publication US7256190B2, “Thiazole compounds useful as inhibitors of protein kinase” (Vertex Pharmaceuticals Incorporated, priority 2001, dated 2007), this text covers Ki and IC50 for 7 compounds.

Holding throughout (format): biochemical
One experiment concerns the target GSK3-β (AA 1-420) (Homo sapiens, UniProt P49841). Description: GSK-3 inhibition assay (coupled enzyme system). The settings on record: 10 μM ATP, 300 μM peptide, 60 nM GSK-3β, 30° C. As to the method:
Compounds were screened for their ability to inhibit GSK3-β (AA 1-420) activity using a standard coupled enzyme system (Fox et al. (1998) Protein Sci. 7, 2249). Reactions were carried out in a solution containing 100 mM HEPES (pH 7.5), 10 mM MgCl2, 25 mM NaCl, 300 μM NADH, 1 mM DTT and 1.5% DMSO. Final substrate concentrations in the assay were 10 μM ATP (Sigma Chemicals, St Louis, Mo.) and 300 μM peptide (HSSPHQS(PO3H2)EDEEE, American Peptide, Sunnyvale, Calif.). Reactions were carried out at 30° C. and 60 nM GSK-3β. Final concentrations of the components of the coupled enzyme system were 2.5 mM phosphoenolpyruvate, 300μM NADH, 30 μg/ml pyruvate kinase and 10 μg/ml lactate dehydrogenase.
An assay stock buffer solution was prepared containing all of the reagents listed above with the exception of ATP and the test compound of interest. 59 μl of the test reaction was placed in a 96 well ½-diameter plate (Corning, Corning, N.Y.) then treated with 1 μl of a 2 mM DMSO stock containing the test compound (final compound concentration 30 μM). The plate was incubated for ˜10 minutes at 30° C. then the reaction initiated by addition of 7 μl of ATP (final concentration 10 μM). Rates of reaction were obtained using a Molecular Devices Spectramax plate reader (Sunnyvale, Calif.) over a 5 minute read time at 30° C.
(§1) The compound numbers correspond to the compound numbers in Table 1.

For another experiment, the target named is T1, Aurora2 (Homo sapiens, UniProt O14965).
T1 sequence (O14965 1-403): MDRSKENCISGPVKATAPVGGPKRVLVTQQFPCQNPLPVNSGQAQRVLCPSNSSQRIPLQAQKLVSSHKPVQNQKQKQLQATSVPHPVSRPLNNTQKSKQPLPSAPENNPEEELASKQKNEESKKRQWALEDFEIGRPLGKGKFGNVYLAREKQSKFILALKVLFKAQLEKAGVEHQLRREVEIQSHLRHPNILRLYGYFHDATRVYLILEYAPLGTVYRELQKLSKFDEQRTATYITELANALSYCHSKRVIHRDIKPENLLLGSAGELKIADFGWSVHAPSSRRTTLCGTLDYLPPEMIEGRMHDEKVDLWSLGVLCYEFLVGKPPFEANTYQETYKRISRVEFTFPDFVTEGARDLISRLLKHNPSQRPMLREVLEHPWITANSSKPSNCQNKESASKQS
Description: Aurora2 inhibition assay (coupled enzyme assay). The settings on record: 800 μM peptide LRRASLG, 70 nM Aurora2, 30° C. As to the method:
Compounds are screened in the following manner for their ability to inhibit Aurora2 using a standard coupled enzyme assay (Fox et al (1998). Protein Sci 7, 2246). To an assay stock buffer solution containing 0.1M HEPES 7.5, 10 mM MgCl2, 1 mM DTT, 25 mM NaCl, 2.5 mM prosphoenolpyruvate, […], […] pyruvate kinase, […] lactate dehydrogenase, […], and 800 μM peptide (LRRASLG, American Peptide, Sunnyvale, Calif.) is added a DMSO solution of a compound of the present invention to a final concentration of 30 μM. The resulting mixture is incubated at 30° C. for 10 minutes. The reaction was initiated by the addition of 10 μL of Aurora2 stock solution to give a final concentration of 70 nM in the assay. The rates of reaction are obtained by monitoring absorbance at 340 nm over a 5 minute read time at 30° C. using a BioRad Ultramark plate reader (Hercules, Calif.). The IC50 values are determined from the rate data as a function of inhibitor concentration.
as §1

Another experiment has as its target Syk (Homo sapiens, UniProt P43405). In words: Syk inhibition assay (coupled enzyme assay). The settings on record: 200 μM ATP, 4 μM poly Gly-Tyr peptide, 30° C. On the procedure: Reactions were carried out in 100 mM HEPES pH 7.5, 10 mM MgCl2, 25 mM NaCl, 1 mM DTT and 1.5% DMSO. Final substrate .concentrations in the assay were 200 μM ATP (Sigmachemical Co.) and 4 μM poly Gly-Tyr peptide (Sigma Chemical Co.). Assays were carried out at 30° C. and 200 nM Syk. Final concentrations of the components of the coupled enzyme system were 2.5 mM phosphoenolpyruvate, 300 μM NADH, 30 μg/ml pyruvate kinase and 10 μg/ml lactate dehydrogenase.
An assay stock buffer solution was prepared containing all of the reagents listed above, with the exception of Syk, DTT and the test compound of interest. 56 μl of the test reaction was placed in a 96 well plate followed by the addition of 1 μl of 2 mM DMSO stock containing the test compound (final compound concentration 30 μM). […] Rates of reaction were obtained using a BioRad Ultramark plate reader (Hercules, Calif.) over a 5 minute read time at 30° C.
as §1

SMILES strings stand for the structures.

GSK3-β (AA 1-420), sequence (P49841 whole entry, the tested form may be a part): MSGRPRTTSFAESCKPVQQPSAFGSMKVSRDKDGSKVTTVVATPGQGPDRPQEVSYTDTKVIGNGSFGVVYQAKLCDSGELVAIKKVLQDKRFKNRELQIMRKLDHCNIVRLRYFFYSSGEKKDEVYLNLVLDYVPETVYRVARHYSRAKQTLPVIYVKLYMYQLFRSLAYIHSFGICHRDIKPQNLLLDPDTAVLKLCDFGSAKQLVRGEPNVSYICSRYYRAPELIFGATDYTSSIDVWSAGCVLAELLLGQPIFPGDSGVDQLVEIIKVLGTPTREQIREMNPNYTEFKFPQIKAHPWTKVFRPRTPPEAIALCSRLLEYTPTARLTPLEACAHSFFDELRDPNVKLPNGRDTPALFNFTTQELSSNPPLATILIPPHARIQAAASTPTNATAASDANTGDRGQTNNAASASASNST

On GSK3-β (AA 1-420), `c1cc(Nc2nccc(-c3nccs3)n2)cc(OCC2CCCCC2)c1` [Compound I-76] registered a Ki of less than 100 nM. Also, the IC50 against Aurora2 and against Syk was greater than 2000 nM each time.
`COC(=O)c1ccc(COc2cccc(Nc3nccc(-c4nccs4)n3)c2)cc1` [Compound I-82] came in with a Ki at GSK3-β (AA 1-420) of less than 100 nM. The IC50 against Aurora2 and against Syk was greater than 2000 nM in each case.
Take `Clc1ccccc1COc1cccc(Nc2nccc(-c3nccs3)n2)c1` [Compound I-88]: the Ki on GSK3-β (AA 1-420) was less than 100 nM. In addition, the IC50 against Aurora2 is 500 to 2000 nM; against Syk, greater than 2000 nM.
In the same order, the values of `Fc1cccc(F)c1COc1cccc(Nc2nccc(-c3nccs3)n2)c1` [Compound I-94] are less than 100 nM, less than 500 nM and less than 500 nM.
In the same order, the values of `FC(F)(F)c1cccc(COc2cccc(Nc3nccc(-c4nccs4)n3)c2)c1` [Compound I-106] are less than 100 nM, greater than 2000 nM and greater than 2000 nM.
In turn, `Fc1ccc(COc2cccc(Nc3nccc(-c4nccs4)n3)c2)cc1` [Compound I-109] returned a Ki at GSK3-β (AA 1-420) of less than 100 nM. The IC50 on Aurora2 and on Syk was greater than 2000 nM throughout.
The compound `Clc1cccc(COc2cccc(Nc3nccc(-c4nccs4)n3)c2)c1Cl` [Compound I-112] returned an inhibitory constant (Ki) on GSK3-β (AA 1-420) of less than 100 nM. In addition, the concentration for half-maximal inhibition (IC50) against Aurora2 and against Syk was greater than 2000 nM in each case.
